Assay results reported in patent publication EP0302824A2 (priority 1987, dated 1989).

Test system: D. balteata
Assay: Soil activity of seed applied furathiocarb on maize cultivars Centaurus and Arjuna
Assay type: in vivo, Diabrotica balteata
Set-up: key to Scores of damage caused by D. balteata: 0-6 crown-root damage scale: 0 = no damage, 6 = <3 roots connect stem to soil
Description: Plastic pots, 1 litre volume, are filled with soil to within 3 cm of the top. Three soil types are used: • 1. A natural soil from Stein, Canton Aargau, Switzerland. This is heat sterilized and sieved to give an agglomerate size of less than 5 mm. Its composition is clay 20.7%, silt 13.7%, sand 65.6%, organic matter 3.2%, pH 5.6. Moisture is adjusted to 20% of dry weight. • 2. An artificial mixture of fine quartz sand and milled neutralized peat (2% of total by dry weight). The moisture is adjusted to 10% of dry weight. • 3. An artificial mixture similar to (2) except that the neutralized peat comprised 6% by dry weight. Moisture is adjusted to 20% for the mixture.
One seed is sown 3 cm deep in the center of each of 10 pots per treatment. The pots are placed in a growth chamber with a relative humidity of 70% in a 12 hour daylength, light intensity 30,000 lux, using 26°C day and 22°C night temperatures. Soil moisture is maintained at the original level by daily irrigation with a commercially available nutrient solution.
After two or three weeks of plant growth, 40 larvae of the banded cucumber beetle (Diabrotica balteata) are scattered on the surface of each pot. This insect species is commonly used as a laboratory model for the corn rootworm (Diabrotica spp.) which is a common soil insect pest of maize (Zea mays) in the USA. For this test, second instar larvae are selected. They are reared on maize seedlings at 23°C for 13 days from egglaying. The surface of the soil in the pots is disturbed and 40 larvae are scattered on the surface. The disturbance encourages burrowing of the larvae.
The insects are allowed to feed on the plant roots for one week before the contents of each pot are separated into three components (roots, insects and soil) using a wet sieving technique. Living larvae are then counted and damage assessed on crown roots growing from the stem-base using the 0-6 scale shown below: • 0 = no damage • 1 = slight feeding damage, no roots eaten through • 2 = more than 3 places with feed damage, no roots eaten through • 3 = 1-2 roots eaten through • 4 = more than 2, but less than half the roots eaten • 5 = more than half the roots eaten, but at least 3 still connect stem and soil • 6 = less than 3 roots connect stem to soil
This example includes the results of test series using 2 maize cultivars Centaurus and Arjuna. The basic test procedure is described in detail under example 20 therefore only differences are mentioned here.
Seeds of the hybrid Centaurus are treated with 4 or 10 g/kg furathiocarb in either PVAc/PVAl or association polymer systems. The cultivar Arjuna is treated with 2.5 or 10 g/kg seed in the same polymer systems. The seeds are sown in two soil types, either a natural soil from Stein, Canton Aargau, Switzerland or in a 98% sand 2% peat mixture. Both these soil types are described previously.

[1] = cultivar Arjuna, 98% Sand, 3 w, Association Polymer, dosage 2.5 g
[2] = cultivar Arjuna, 98% Sand, 3 w, Association Polymer, dosage 10 g
[3] = cultivar Arjuna, 98% Sand, 3 w, PVAc/PVAl, dosage 2.5 g
[4] = cultivar Arjuna, 98% Sand, 3 w, PVAc/PVAl, dosage 10 g
[5] = cultivar Arjuna, 98% Sand, 4 w, Association Polymer, dosage 2.5 g
[6] = cultivar Arjuna, 98% Sand, 4 w, Association Polymer, dosage 10 g
[7] = cultivar Arjuna, 98% Sand, 4 w, PVAc/PVAl, dosage 2.5 g
[8] = cultivar Arjuna, 98% Sand, 4 w, PVAc/PVAl, dosage 10 g
[9] = cultivar Arjuna, Stein Earth, 3 w, Association Polymer, dosage 2.5 g
[10] = cultivar Arjuna, Stein Earth, 3 w, Association Polymer, dosage 10 g
[11] = cultivar Arjuna, Stein Earth, 3 w, PVAc/PVAl, dosage 2.5 g
[12] = cultivar Arjuna, Stein Earth, 3 w, PVAc/PVAl, dosage 10 g
[13] = cultivar Arjuna, Stein Earth, 4 w, Association Polymer, dosage 2.5 g
[14] = cultivar Arjuna, Stein Earth, 4 w, Association Polymer, dosage 10 g
[15] = cultivar Arjuna, Stein Earth, 4 w, PVAc/PVAl, dosage 2.5 g
[16] = cultivar Arjuna, Stein Earth, 4 w, PVAc/PVAl, dosage 10 g
[17] = hybrid Centaurus, 98% Sand, 3 w, Association Polymer, dosage 4 g
[18] = hybrid Centaurus, 98% Sand, 3 w, Association Polymer, dosage 10 g
[19] = hybrid Centaurus, 98% Sand, 3 w, PVAc/PVAl, dosage 4 g
[20] = hybrid Centaurus, 98% Sand, 3 w, PVAc/PVAl, dosage 10 g
[21] = hybrid Centaurus, 98% Sand, 4 w, Association Polymer, dosage 4 g
[22] = hybrid Centaurus, 98% Sand, 4 w, Association Polymer, dosage 10 g
[23] = hybrid Centaurus, 98% Sand, 4 w, PVAc/PVAl, dosage 4 g
[24] = hybrid Centaurus, 98% Sand, 4 w, PVAc/PVAl, dosage 10 g
[25] = hybrid Centaurus, Stein Earth, 3 w, Association Polymer, dosage 4 g
[26] = hybrid Centaurus, Stein Earth, 3 w, Association Polymer, dosage 10 g
[27] = hybrid Centaurus, Stein Earth, 3 w, PVAc/PVAl, dosage 4 g
[28] = hybrid Centaurus, Stein Earth, 3 w, PVAc/PVAl, dosage 10 g
[29] = hybrid Centaurus, Stein Earth, 4 w, Association Polymer, dosage 4 g
[30] = hybrid Centaurus, Stein Earth, 4 w, Association Polymer, dosage 10 g
[31] = hybrid Centaurus, Stein Earth, 4 w, PVAc/PVAl, dosage 4 g
[32] = hybrid Centaurus, Stein Earth, 4 w, PVAc/PVAl, dosage 10 g

Q: `CCCCOC(=O)N(C)SN(C)C(=O)Oc1cccc2c1OC(C)(C)C2` [furathiocarb] was tested. Which “Percent D. balteata survival” value [1] did it give?
A: The value was 5%.

Q: And the “Scores of damage caused by D. balteata” value [1]?
A: Its value is 1.4.

Q: What about the “Percent D. balteata survival” value [2] of the same compound?
A: The value was 8%.

Q: What about the “Scores of damage caused by D. balteata” value [2] of the same compound?
A: Its value is 1.2.

Q: And the “Percent D. balteata survival” value [3]?
A: The value was 20%.

Q: And the “Scores of damage caused by D. balteata” value [3]?
A: Its value is 3.0.

Q: And the “Percent D. balteata survival” value [4]?
A: The value was 20%.

Q: What about the “Scores of damage caused by D. balteata” value [4] of the same compound?
A: Its value is 2.8.

Q: What about the “Percent D. balteata survival” value [5] of the same compound?
A: The value was 17%.

Q: And the “Scores of damage caused by D. balteata” value [5]?
A: Its value is 2.8.

Q: What about the “Percent D. balteata survival” value [6] of the same compound?
A: Its value is 0%.

Q: And the “Scores of damage caused by D. balteata” value [6]?
A: The value was 0.6.

Q: What about the “Percent D. balteata survival” value [7] of the same compound?
A: The value was 39%.

Q: And the “Scores of damage caused by D. balteata” value [7]?
A: Its value is 3.4.

Q: What about the “Percent D. balteata survival” value [8] of the same compound?
A: The value was 21%.

Q: And the “Scores of damage caused by D. balteata” value [8]?
A: The value was 3.2.

Q: And the “Percent D. balteata survival” value [9]?
A: The value was 1%.

Q: What about the “Scores of damage caused by D. balteata” value [9] of the same compound?
A: Its value is 3.6.

Q: And the “Percent D. balteata survival” value [10]?
A: Its value is 1%.

Q: What about the “Scores of damage caused by D. balteata” value [10] of the same compound?
A: Its value is 1.8.

Q: And the “Percent D. balteata survival” value [11]?
A: The value was 5%.

Q: What about the “Scores of damage caused by D. balteata” value [11] of the same compound?
A: The value was 3.2.

Q: What about the “Percent D. balteata survival” value [12] of the same compound?
A: Its value is 3%.

Q: And the “Scores of damage caused by D. balteata” value [12]?
A: The value was 3.0.

Q: And the “Percent D. balteata survival” value [13]?
A: The value was 17%.

Q: What about the “Scores of damage caused by D. balteata” value [13] of the same compound?
A: Its value is 3.8.

Q: And the “Percent D. balteata survival” value [14]?
A: The value was 0%.

Q: What about the “Scores of damage caused by D. balteata” value [14] of the same compound?
A: The value was 2.3.

Q: What about the “Percent D. balteata survival” value [15] of the same compound?
A: Its value is 11%.

Q: And the “Scores of damage caused by D. balteata” value [15]?
A: Its value is 3.0.

Q: And the “Percent D. balteata survival” value [16]?
A: Its value is 14%.

Q: What about the “Scores of damage caused by D. balteata” value [16] of the same compound?
A: The value was 3.4.

Q: And the “Percent D. balteata survival” value [17]?
A: The value was 2%.

Q: What about the “Scores of damage caused by D. balteata” value [17] of the same compound?
A: Its value is 1.4.

Q: And the “Percent D. balteata survival” value [18]?
A: Its value is 4%.

Q: What about the “Scores of damage caused by D. balteata” value [18] of the same compound?
A: The value was 0.

Q: What about the “Percent D. balteata survival” value [19] of the same compound?
A: Its value is 17%.

Q: What about the “Scores of damage caused by D. balteata” value [19] of the same compound?
A: The value was 3.0.

Q: What about the “Percent D. balteata survival” value [20] of the same compound?
A: Its value is 8%.

Q: What about the “Scores of damage caused by D. balteata” value [20] of the same compound?
A: Its value is 1.8.

Q: What about the “Percent D. balteata survival” value [21] of the same compound?
A: Its value is 8%.

Q: And the “Scores of damage caused by D. balteata” value [21]?
A: Its value is 1.6.

Q: And the “Percent D. balteata survival” value [22]?
A: The value was 8%.

Q: And the “Scores of damage caused by D. balteata” value [22]?
A: The value was 1.2.

Q: What about the “Percent D. balteata survival” value [23] of the same compound?
A: The value was 36%.

Q: And the “Scores of damage caused by D. balteata” value [23]?
A: Its value is 3.4.

Q: What about the “Percent D. balteata survival” value [24] of the same compound?
A: Its value is 30%.

Q: What about the “Scores of damage caused by D. balteata” value [24] of the same compound?
A: Its value is 3.6.

Q: What about the “Percent D. balteata survival” value [25] of the same compound?
A: The value was 0%.

Q: And the “Scores of damage caused by D. balteata” value [25]?
A: Its value is 0.8.

Q: And the “Percent D. balteata survival” value [26]?
A: Its value is 1%.

Q: And the “Scores of damage caused by D. balteata” value [26]?
A: Its value is 1.0.

Q: What about the “Percent D. balteata survival” value [27] of the same compound?
A: The value was 1%.

Q: And the “Scores of damage caused by D. balteata” value [27]?
A: Its value is 2.1.

Q: And the “Percent D. balteata survival” value [28]?
A: Its value is 1%.

Q: And the “Scores of damage caused by D. balteata” value [28]?
A: Its value is 1.0.

Q: And the “Percent D. balteata survival” value [29]?
A: Its value is 4%.

Q: What about the “Scores of damage caused by D. balteata” value [29] of the same compound?
A: Its value is 2.1.

Q: And the “Percent D. balteata survival” value [30]?
A: The value was 7%.

Q: And the “Scores of damage caused by D. balteata” value [30]?
A: Its value is 1.9.

Q: What about the “Percent D. balteata survival” value [31] of the same compound?
A: Its value is 4%.

Q: What about the “Scores of damage caused by D. balteata” value [31] of the same compound?
A: The value was 1.8.

Q: And the “Percent D. balteata survival” value [32]?
A: The value was 10%.

Q: And the “Scores of damage caused by D. balteata” value [32]?
A: Its value is 2.2.
